These results are taken from EP0923576B1, “4-AMINOETHOXY-INDOLONE DERIVATIVES AS DOPAMINE D2 AGONISTS” (Wyeth, priority 1996, dated 1998).

One experiment addresses T1, dopamine D-2 receptor (Rattus norvegicus, UniProt P61169).
T1 construct: homogenized limbic brain tissue is incubated with ^3H-spiroperidol; from tissue
As to the kind of experiment: 3H-spiroperidol binding, affinity for the dopamine D-2 receptor in homogenized limbic brain tissue. Conditions: for Ratio: ratio IC50 D2 Spiper / IC50 D2 Quin. (LowAg/HighAg), predicts intrinsic activity; for IC50: read-out: IC50 (nM) D2 Spiper.

The target of a further experiment is dopamine autoreceptor (Rattus norvegicus, UniProt P61169). As to the kind of experiment: 3H-quinpirole binding, affinity for the dopamine autoreceptor in homogenized striatal brain tissue.
Chain of dopamine autoreceptor (P61169 whole entry): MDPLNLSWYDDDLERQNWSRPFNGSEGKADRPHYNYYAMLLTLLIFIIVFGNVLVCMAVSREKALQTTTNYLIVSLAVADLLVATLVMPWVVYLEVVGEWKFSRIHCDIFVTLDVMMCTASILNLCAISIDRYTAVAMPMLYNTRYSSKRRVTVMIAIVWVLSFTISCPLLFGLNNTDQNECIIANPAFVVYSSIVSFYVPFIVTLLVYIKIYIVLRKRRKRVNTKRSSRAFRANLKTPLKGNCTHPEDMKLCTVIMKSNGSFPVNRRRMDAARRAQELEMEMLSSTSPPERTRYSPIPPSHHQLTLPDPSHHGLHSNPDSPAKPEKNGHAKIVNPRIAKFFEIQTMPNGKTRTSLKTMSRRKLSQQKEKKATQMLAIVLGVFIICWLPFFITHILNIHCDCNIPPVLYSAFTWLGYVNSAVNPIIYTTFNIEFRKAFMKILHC

T1 sequence (P61169 whole entry): as above
Procedure for dopamine autoreceptor: Affinity for the dopamine autoreceptor was established by a modification of the standard experimental test procedure of Seemen and Schaus, European Journal of Pharmacology 203, 105-109 (1991), wherein homogenized rat striatal brain tissue is incubated with ^3H-quinpirole (Quin.)and various concentrations of test compound, filtered and washed and counted in a Betaplate scintillation counter.

As for `CSC1C(=O)Nc2c(F)ccc(OCCNCc3ccsc3)c21` (stereo not drawn) [Example 1], at dopamine D-2 receptor, the Ratio is recorded as 91 and the IC50 is 135 nM. Besides, the IC50 at dopamine autoreceptor worked out at 1.49 nM.

Regarding `O=C1Cc2c(OCCNCc3cccs3)ccc(Cl)c2N1` [Example 2a, 4-[2-Thien-2-ylmethyl)aminoethoxyl-7-chloro-1,3-dihydro-indol-2-one], at dopamine D-2 receptor, the Ratio is 30.5 and the IC50 was determined as 33.5 nM. The molecule also registered a concentration for half-maximal inhibition (IC50) on dopamine autoreceptor of 1.1 nM.

On to `O=C1Cc2c(OCCNCc3ccsc3)ccc(Cl)c2N1` [Example 2b, 4-[2-(Thien-3-ylmethyl)aminoethoxy]-7-chloro 1,3-dihydro-indol-2-one], for which, at dopamine D-2 receptor, the Ratio is reported as 37.7 and the half-inhibitory concentration (IC50) was determined as 26.7 nM. On dopamine autoreceptor, this molecule had an IC50 of 0.71 nM.

Turning to `O=C1Cc2c(OCCNCc3ccsc3)ccc(F)c2N1` [Example 3a], on dopamine D-2 receptor, the Ratio is given as 128 and the 50% inhibitory concentration (IC50) was 323 nM. Also, the IC50 on dopamine autoreceptor stood at 2.53 nM.

In the case of `O=C1Cc2c(OCCNCc3cccs3)ccc(F)c2N1` [Example 3b, 4-[2-(Thien-2-ylmethyl)aminoethoxy]-7-fluoro-1,3-dihydro-indol-2-one], on dopamine D-2 receptor, the Ratio is recorded as 293 and the half-inhibitory concentration (IC50) was 398 nM. On dopamine autoreceptor, this molecule showed a half-maximal inhibitory concentration (IC50) of 1.36 nM.
